Reference: patent publication US20030220369A1, “Heterocyclic sulfonamide derivatives and their use for potentiating glutamate receptor function” (priority 2003, published 2003)

melting point: 86 to 87 °C
Compound: CC(C)S(=O)(=O)NCC(C)(F)c1ccc(-c2cccc3c2CC(=O)N3)cc1 (stereo not shown) [Example 9, 4-[4-(1-fluoro-1-methyl-2-{[methylethyl)sulfonylamino}-ethyl)phenyl]indolin-2one]
